Experimental data: PMC10577883, “Design and Optimization of Novel Competitive, Non-peptidic, SARS-CoV-2 M^pro Inhibitors” (ACS Medicinal Chemistry Letters, 2023)

What was measured:
[1] = system: SARS-CoV-2-Nluc reporter virus; test: microbe, parasite or virus in culture; assay type: cell-based; settings: Severe acute respiratory syndrome coronavirus 2; VeroE6/TMPRSS2 cells; parentheses denote 95% confidence intervals
CYP3A = system: CYP3A; design: method as in PMID 37171749; settings: cited from earlier work
[2] = Liver microsome metabolite identification (LC-HRMS); assay type: in vitro ADME
Procedure: Figure S15: Stability of 45 in rat liver microsomes (RLM) at 37 °C
Table S17: Stability of 43 in rat liver microsomes (RLM) at 37 °C
Time Response ratio Average RR Rel % ln
Metabolite identification
Procedure for Liver Microsome Metabolite Identification Assay: Test compounds and positive controls were dissolved in 100% DMSO to make 10 mM stock solutions. The 10 mM stock solutions of test and control […]
(1 picture or pasted object on this page, not shown here) […]
compounds were further diluted in potassium phosphate buffer (100 mM, pH 7.4) to 500 μM to ensure that the organic solvent content was < 0.2%. The liver microsome (HLM or MLM) assay was prepared in a 1.5 mL Eppendorf tube with a final volume of […] for duplicate runs. Each reaction contained phosphate buffer (374 μL), liver microsomes (550 μL), and test compound (66 μL of 500 resulting in a final concentration of 30 μM), μM for the […]
test compound. […] Aliquots (100 μL) were removed in […]
MS analysis was performed using full scan from a mass range of 100-700 m/z at 60k resolution with data dependent MS/MS and MSn programs enabled for the top 5 ions detected for each scan. Compounds are detected based on their MS1 precursor ion accurate mass m/z and identified with matching theoretical and observed accurate mass MS1 ions with interpretation of accurate mass MS/MS spectra from expected […]

in vitro [3] = settings: human, microsomes
Procedure: Metabolic Stability Assay
(§1) Liver Microsome Stability Assay Protocol
(§2) Human liver microsomes (HLMs, 20 mg/mL), CD-1 mouse liver microsomes (MLMs, 20 mg/mL), Sprague Dawley
(§3) rat liver microsomes (RLMs, 20 mg/mL) were purchased from Xenotech. NADPH was purchased from Sigma-
(§4) Aldrich and prepared in 10 mM stock solutions of distilled H2O (InvitrogenTM UltraPureTM). Verapamil and
(§5) diphenhydramine were both purchased from Sigma-Aldrich and served as positive controls for LM stability assays.
(§6) Test compounds and positive controls were initially dissolved in DMSO to make 10 mM stock solutions. Sample
(§7) solutions were then further diluted in 100% MeCN to 500 μM. Next, the reactions were prepared by mixing human
(§8) or mouse liver microsomes (55 μL) with potassium phosphate buffer (100 mM, 928 μL) in 1.5 mL Eppendorf tubes.
(§9) The test compounds (6.6 μL of 500 μM solution) were subsequently added to the suspensions, and the reaction
(§10) mixtures were incubated at 37 °C for 5 min. Afterward, the liver microsome reactions were initiated with 110 μL
(§11) of 10 mM NADPH and further incubated at 37 °C for the designated time course of the study. This procedure
(§12) provided experiments with a final volume of 1100 μL (0.6% organic solvent content) and a final test compound
(§13) concentration of 3 μM. Aliquots (100 μL) were removed from each reaction mixture in duplicate at 0, 5, 10, 15,
(§14) and 30 min time intervals and quenched with 100 μL of cold internal standard solution (ISTD, 2 μM
(§15) 7-ethoxy-d 5-coumarin in MeOH or MeCN). Quenched aliquots were then centrifuged at 12,500 g for 5-10 min, and
(§16) the resulting supernatants were withdrawn and placed in LC-MS vials to be analyzed by LC-MS/MS (Agilent
(§17) G6460C QQQ MS coupled with an Infinity II 1260 HPLC). Each test compound was run in tandem with positive and
(§18) negative control experiments for quality assurance. Positive control reactions were conducted at a final volume
(§19) of 550 μL for a single run of each time point. Lastly, the negative control experiment was conducted with test
(§20) compounds and liver microsomes in the absence of NADPH (150 μL) and analyzed at the 30 min time point.
(§21) Data Analysis. Each data point was analyzed in triplicate using in-between blank washes to avoid carry over and
(§22) to equilibrate the column for the subsequent runs. Averages of these triplicates for individual compounds at each
(§23) time point were then normalized to the data at 0 min, representing 100% test compound remaining or 0%
(§24) metabolism. Half-lives (t 1/2) were calculated by plotting ln of % test compound remaining versus time and
(§25) performing linear regression to determine slope.
(§26) Instrumentation and LC-MS/MS Method Development
(§27) LC-MS/MS analyses were conducted on an Agilent 1260 Infinity II HPLC equipped with an Agilent G6460 triple
(§28) quadrupole mass spectrometer (Agilent Technologies, USA). Reverse-phase HPLC separation for each compound
(§29) m) column maintained at 40 °C. The mobile phase used during analyses consisted of either MeOH-H2O (0.1% FA)
(§30) or MeCN-H2O (0.1% FA) at a flow rate of 0.5 mL/min. Each method was developed in the presence of the internal
(§31) standard (ISTD), 7-ethoxy-d 5-coumarin. Precursor and product ion detection was performed with Agilent Jet
(§32) Stream electrospray positive ionization (ESI+) in multiple reaction monitoring (MRM) mode. All MRM transitions,
(§33) MS conditions were as follows: dwell time of 100 ms; gas flow of 10 L/min; nebulizer pressure of 45 psi; delta EMV
(§34) of 200 V. Lastly, all acquired data was processed using Agilent 6460 Quantitative Analysis software.

in vitro [4] = settings: CD-1, mouse, microsomes
Procedure: Metabolic Stability Assay
as §1, §2, §3, §4, §5, §6, §7, §8, §9, §10, §11, §12, §13, §14, §15, §16, §17, §18, §19, §20, §21, §22, §23, §24, §25, §26, §27, §28, §29, §30, §31, §32, §33, §34

in vitro [5] = settings: Sprague-Dawley, rat, microsomes
Procedure: Metabolic Stability Assay
as §1, §2, §3, §4, §5, §6, §7, §8, §9, §10, §11, §12, §13, §14, §15, §16, §17, §18, §19, §20, §21, §22, §23, §24, §25, §26, §27, §28, §29, §30, §31, §32, §33, §34

Structure (SMILES): Cn1cnc(Cn2c(=O)[nH]/c(=N\c3cc4cn(C)nc4cc3Cl)n(Cc3cc(F)c(F)cc3F)c2=O)n1 [Compound S-217622, ensitrelvir, reference compound]
- EC50 [1]: 230 nM
- CYP3A inhibition (CYP3A): strong CYP3A inhibitor

Structure (SMILES): Cn1cc(-c2cc(-c3cc(Cl)c(F)c(OCc4ccccc4Cl)c3)c(=O)n(-c3cccnc3)c2)c(=O)[nH]c1=O [Compound 4]
- major microsomal metabolite / metabolic route [2]: loss of the ortho-chlorobenzyl moiety
- remaining at 5 min, 3 µM (in vitro [3]): 46.1%
- remaining at 10 min, 3 µM (in vitro [3]): 22.7%
- remaining at 0.25 h, 3 µM (in vitro [3]): 16.3%
- half-life at 3 µM (in vitro [3]; HLM t1/2): 7.2 min
- half-life at 3 µM (in vitro [4]): 2.4 min
- remaining at 5 min, 3 µM (in vitro [4]): 9.41%
- remaining at 10 min, 3 µM (in vitro [4]): 5.25%
- remaining at 0.25 h, 3 µM (in vitro [4]): 2.96%
- half-life at 3 µM (in vitro [5]): 4.8 min
- remaining at 5 min, 3 µM (in vitro [5]): 63.6%
- remaining at 10 min, 3 µM (in vitro [5]): 26.6%
- remaining at 0.25 h, 3 µM (in vitro [5]): 17.4%
